From US9655870B2, “Homeopathic drug composition and methods of use thereof” (priority 2002, dated 2017)

Test system: patients with at least moderate allergies
Experiment: Allergy study (Example 2)
Assay type: in vivo, human
From the text: Table 3. Table 3 is the clinical data from all patients who reported at least moderate allergies at the pre-study.

Compound: O=C(CCNC(=O)OCc1ccccc1)NCCS(=O)(=O)O [Taurox SB]
- average reduction in allergy symptom frequency (five of the eight patients, p=0.017): 82%
- Allergy (lower numbers indicates less frequent allergies) (patient 102, week 0): 10
- Allergy (lower numbers indicates less frequent allergies) (patient 102, week 1): 10
- Allergy (lower numbers indicates less frequent allergies) (patient 102, week 2): 10
- Allergy (lower numbers indicates less frequent allergies) (patient 102, week 3): 10
- Allergy (lower numbers indicates less frequent allergies) (patient 102, week 4): 10
- Allergy (lower numbers indicates less frequent allergies) (patient 102, week 6): 8.5
- Allergy (lower numbers indicates less frequent allergies) (patient 102, week 7): 8.5
- Allergy (lower numbers indicates less frequent allergies) (patient 102, week 8): 8.5
- Allergy (lower numbers indicates less frequent allergies) (patient 102, week 9): 8.5
- Allergy (lower numbers indicates less frequent allergies) (patient 102, week 10): 10
- Allergy (lower numbers indicates less frequent allergies) (patient 102, week 11): 10
- Allergy (lower numbers indicates less frequent allergies) (patient 103, week 0): 8
- Allergy (lower numbers indicates less frequent allergies) (patient 103, week 1): 7
- Allergy (lower numbers indicates less frequent allergies) (patient 103, week 2): 3
- Allergy (lower numbers indicates less frequent allergies) (patient 103, week 5): 3
- Allergy (lower numbers indicates less frequent allergies) (patient 103, week 7): 3
- Allergy (lower numbers indicates less frequent allergies) (patient 103, week 8): 3
- Allergy (lower numbers indicates less frequent allergies) (patient 103, week 9): 3
- Allergy (lower numbers indicates less frequent allergies) (patient 201, week 0): 10
- Allergy (lower numbers indicates less frequent allergies) (patient 201, week 1): 5
- Allergy (lower numbers indicates less frequent allergies) (patient 201, week 2): 1
- Allergy (lower numbers indicates less frequent allergies) (patient 201, week 3): 0
- Allergy (lower numbers indicates less frequent allergies) (patient 201, week 4): 1
- allergy symptoms (patient 401, 8X dose for 3 months): less frequent and less severe
- Allergy (lower numbers indicates less frequent allergies) (patient 401, week 0): 9
- Allergy (lower numbers indicates less frequent allergies) (patient 401, week 1): 9
- Allergy (lower numbers indicates less frequent allergies) (patient 401, week 3): 3
- Allergy (lower numbers indicates less frequent allergies) (patient 401, week 5): 3
- Allergy (lower numbers indicates less frequent allergies) (patient 401, week 6): 2
- Allergy (lower numbers indicates less frequent allergies) (patient 401, week 7): 2
- Allergy (lower numbers indicates less frequent allergies) (patient 401, week 9): 3
- Allergy (lower numbers indicates less frequent allergies) (patient 401, week 10): 4
- Allergy (lower numbers indicates less frequent allergies) (patient 401, week 11): 3
- Allergy (lower numbers indicates less frequent allergies) (patient 402, week 0): 6
- Allergy (lower numbers indicates less frequent allergies) (patient 402, week 1): 3
- Allergy (lower numbers indicates less frequent allergies) (patient 402, week 2): 2
- Allergy (lower numbers indicates less frequent allergies) (patient 402, week 3): 2
- Allergy (lower numbers indicates less frequent allergies) (patient 402, week 4): 3
- Allergy (lower numbers indicates less frequent allergies) (patient 701, week 0): 10
- Allergy (lower numbers indicates less frequent allergies) (patient 701, week 2): 10
- Allergy (lower numbers indicates less frequent allergies) (patient 701, week 3): 10
- Allergy (lower numbers indicates less frequent allergies) (patient 701, week 4): 10
- Allergy (lower numbers indicates less frequent allergies) (patient 701, week 5): 10
- Allergy (lower numbers indicates less frequent allergies) (patient 701, week 6): 10
- severe allergic response to known allergens (patient 702, 8X dose): marked reduction
- Allergy (lower numbers indicates less frequent allergies) (patient 702, week 0): 10
- Allergy (lower numbers indicates less frequent allergies) (patient 702, week 1): 10
- Allergy (lower numbers indicates less frequent allergies) (patient 702, week 2): 10
- Allergy (lower numbers indicates less frequent allergies) (patient 702, week 3): 5
- Allergy (lower numbers indicates less frequent allergies) (patient 702, week 4): 6
- Allergy (lower numbers indicates less frequent allergies) (patient 702, week 5): 3
- Allergy (lower numbers indicates less frequent allergies) (patient 703, week 0): 10
- Allergy (lower numbers indicates less frequent allergies) (patient 703, week 1): 10
- Allergy (lower numbers indicates less frequent allergies) (patient 703, week 2): 10
- Allergy (lower numbers indicates less frequent allergies) (patient 703, week 3): 10
- Allergy (lower numbers indicates less frequent allergies) (patient 703, week 4): 10
- Allergy (lower numbers indicates less frequent allergies) (patient 703, week 5): 10
- Allergy (lower numbers indicates less frequent allergies) (patient 703, week 6): 10
- Allergy (lower numbers indicates less frequent allergies) (patient 703, week 7): 10
- Allergy (lower numbers indicates less frequent allergies) (patient 703, week 8): 10
- allergies, most patients of Table 3 (patients with at least moderate allergies at pre-study): decrease in allergies
